According to patent US20260258113A1, “BETA GLOBIN MIMETIC PEPTIDES AND THEIR USE” (THE UNITED STATES OF AMERICA, AS REPRESENTED BY THE …, priority 2022, published 2026):
Where “and” joins values, the source holds several entries; their conditions need not be identical. Identical values can stand only once. Entries after “also recorded” stand apart in the source; their conditions may differ.

Key:
[1] = test system: human omental arteries; experiment: Isolated artery pressure myography: vasoconstriction to phenylephrine after alpha globin mimetic or control peptide, then L-NAME; format: cell-based; design: key to Top (Mean) / Bottom (Mean): fitted inner diameter, % of baseline; conditions: for Bottom (Mean) / Top (Mean): four parameter logistic fit of inner diameter (percentage of baseline) vs phenylephrine; for effect on vasoconstriction response to PE: omental arteries incubated with peptide, 5 μmol/L; for maximal constriction to phenylephrine (4-PL minimum): pairs of omental arteries from five donors
Description: To test this hypothesis, ex vivo pressure myography was performed on pairs of omental arteries obtained from each of five donors in response to escalating doses of the alpha adrenoreceptor agonist phenylephrine (responses fit with four parameter logistic regression best-fit values, FIGS. 6A-6B).
Isolated artery pressure myography: The pressure myography methodology utilized here for omental arteries is consistent with published protocols for assessing reactivity of mesenteric articles using a DMT pressure myograph (Shahid and Buys, JoVE J Vis Exp. 7.76:50328, 2013). Arteries […] in diameter were dissected from omental tissue on ice and transferred to the culture myograph wells (DMT-USA CM204); arterial inner diameter was measured by video microscope (DMT-USA) with digital calipers (MyoVIEW, DMT-USA).
All arteries used developed at least 20% myogenic tone after pressurization, consistent with standards for pressure myography (Shahid and Buys, JoVE J Vis Exp. 7.76:50328, 2013; Butcher et al., JoVE J Vis Exp. 28.62:3674, 2012; Jadeja et al., JoVE J Vis Exp. 6.101:e50997, 2015). Arteries were assessed for vasoconstriction response to the alpha-1-adrenoreceptor agonist phenylephrine (PE) [10^−9-10^−3] M (Sigma-Aldrich). Dose response to PE was then assessed after incubation with either the alpha globin mimetic peptide HbαX or a control peptide (5 μmol/L in KH buffer), and again following incubation with the NOS inhibitor No-Nitro-L-arginine methyl ester HCl (L-NAME, 10^−4 M)(Sigma-Aldrich).

[2] = test system: isolated human omental arteries; experiment: Isolated artery pressure myography: vasoconstriction to phenylephrine after beta globin mimetic peptides; format: cell-based; conditions: peptide 5 μmol/L for 45 minutes at 37° C., ex vivo
Description: Collection of omental arteries: Human omental tissue was collected from patients during clinically indicated abdominal operations at the NIH Clinical Center. All patients provided informed consent for tissue procurement on IRB-approved protocol 13-C-0176 (NCT01915225). Tissue removed by the surgeon was immediately submerged in cold 4° C. Krebs-HEPES (KH) buffer (pH 7.4) and kept on ice during dissection and artery isolation. Small arteries were dissected away from the tissue in cold Krebs-HEPES (KH) buffer (Boston BioProducts).
Identification of beta globin mimetic peptides: Tetrameric hemoglobin was docked with dimer eNOS oxygenase domain using molecular docking algorithms (HADDOCK2). […]
Isolated artery pressure myography: The pressure myography methodology utilized here for omental arteries is consistent with published protocols for assessing reactivity of mesenteric articles using a DMT pressure myograph. […] Digital video calipers were used to measure in the inner diameter of cannulated arteries (MyoVIEW, DMT-USA) at two positions, and the average of both measurements was recorded.
All arteries developed at least 20% myogenic tone after pressurization, consistent with standards for pressure myography. Arteries were assessed for vasoconstriction response to the alpha-1-adrenoreceptor agonist phenylephrine (PE, Sigma-Aldrich) at successively higher doses ranging from 10^−9 to 10^−3 molar. […]

[3] = test system: canine resistance arteries; experiment: Pressure myography of canine arteries: phenylephrine dose escalation after Hbb-1; format: cell-based
Description: For these studies, omental tissue was removed from a canine laboratory animals soon after euthanasia. Mesenteric arteries 100-300 um in diameter were dissected out of the tissue and cannulated on glass pipettes. The arteries were incubated in a physiologic buffer solution (Krebs-Henseleit) at 37 degrees Celsius and pressured to 60 mm Hg. To assess vasoreactivity, escalating doses of phenylephrine were added to the incubation bath and artery diameter was measured using video microscopy with edge detection and digital calipers. The artery was incubated with 5 uM Hbb-1 peptide (including the tat cell permeability sequence) for 45 minutes. A second phenylephrine dose escalation was applied, and vasoconstriction was measured. The entire experiment was repeated with a second animal donor. In FIG. 20, artery diameter is presented as a percentage of baseline resting diameter at 60 mm Hg of pressure. The means and standard error of the mean were plotted for each condition and phenylephrine dose.

[4] = molecular target: T1, association of alpha globin with eNOS (Mus musculus, UniProt P70313); conditions: mice; cited from earlier work
T1 construct: host or cells: mice (in vivo), endogenous proteins of resistance arteries
T1 sequence (P70313 2-1202 limits assumed): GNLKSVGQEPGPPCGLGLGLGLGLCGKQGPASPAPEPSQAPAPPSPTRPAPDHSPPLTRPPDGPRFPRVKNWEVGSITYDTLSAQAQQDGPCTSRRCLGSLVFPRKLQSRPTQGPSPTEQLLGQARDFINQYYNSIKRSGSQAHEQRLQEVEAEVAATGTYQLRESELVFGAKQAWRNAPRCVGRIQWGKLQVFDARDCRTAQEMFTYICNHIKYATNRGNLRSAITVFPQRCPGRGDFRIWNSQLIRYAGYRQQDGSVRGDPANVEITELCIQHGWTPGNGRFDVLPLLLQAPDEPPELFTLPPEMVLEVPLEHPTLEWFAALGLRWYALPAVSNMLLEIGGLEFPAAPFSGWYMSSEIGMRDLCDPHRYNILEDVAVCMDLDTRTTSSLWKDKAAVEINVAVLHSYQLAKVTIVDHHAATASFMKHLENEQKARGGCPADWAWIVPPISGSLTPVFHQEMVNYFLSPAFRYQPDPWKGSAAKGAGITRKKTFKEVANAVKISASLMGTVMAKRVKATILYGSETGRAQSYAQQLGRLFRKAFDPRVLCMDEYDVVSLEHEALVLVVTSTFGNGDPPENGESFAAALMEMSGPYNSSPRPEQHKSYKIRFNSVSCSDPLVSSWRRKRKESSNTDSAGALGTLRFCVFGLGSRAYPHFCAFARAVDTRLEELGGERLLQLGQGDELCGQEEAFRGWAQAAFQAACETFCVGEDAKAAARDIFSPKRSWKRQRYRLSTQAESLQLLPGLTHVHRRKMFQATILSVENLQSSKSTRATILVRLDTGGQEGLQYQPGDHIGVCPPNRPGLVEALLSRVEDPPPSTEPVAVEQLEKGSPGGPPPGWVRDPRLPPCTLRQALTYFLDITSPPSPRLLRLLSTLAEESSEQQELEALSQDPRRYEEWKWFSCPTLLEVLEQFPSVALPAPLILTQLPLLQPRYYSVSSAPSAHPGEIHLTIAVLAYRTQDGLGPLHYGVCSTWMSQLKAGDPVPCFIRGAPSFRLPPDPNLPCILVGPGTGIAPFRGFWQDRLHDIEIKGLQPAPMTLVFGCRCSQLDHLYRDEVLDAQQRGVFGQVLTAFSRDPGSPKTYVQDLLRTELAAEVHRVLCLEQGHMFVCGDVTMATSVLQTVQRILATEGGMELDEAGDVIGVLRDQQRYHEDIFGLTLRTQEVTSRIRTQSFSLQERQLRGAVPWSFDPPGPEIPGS

[5] = n = 5 human donors, peptide 5 μmol/L, L-NAME 10^-4 M
[6] = four parameter logistic fit, n = 5 human donors, peptide 5 μmol/L, L-NAME 10^-4 M
[7] = log of phenylephrine concentration, four parameter logistic fit, n = 5 human donors, peptide 5 μmol/L, L-NAME 10^-4 M

With YGRKKRRQRRRFPYFSTKLTT [control peptide] the “Bottom (Mean)” value [1, 5] was 45.78, the “Top (Mean)” value [1, 5] was 100.40 and the “HillSlope (Mean)” value [1, 6] was −0.623. The “LogIC50 (Mean)” value [1, 7] was −6.020, the “effect on vasoconstriction response to PE” value [1] was “no significant difference” and the “maximal constriction to phenylephrine (4-PL minimum)” value (shortened to “maximal constriction”) ([1]; peptide 5 μmol/L) was 39.1±3.2 % of baseline diameter.

For TPEEKSAVTALWGK [Hbb-1], the “effect on human arterial vasoconstriction responses to phenylephrine” value [2] was “can inhibit vasoconstriction”, the “effect on human arterial vasoconstriction responses to phenylephrine” value ([2]; listed as Hbb-Peptide-1) was “potent vasodilatory effects” and the “increase of phenylephrine dose needed to achieve the same degree of vasoconstriction” value ([3]; 5 uM Hbb-1 peptide (including tat sequence) for 45 minutes, two animal donors) was “approximately 100 times”. The “effect on phenylephrine-induced vasoconstriction in canine arteries” value ([3]; 5 uM Hbb-1 peptide for 45 minutes) was “can inhibit vasoconstriction; also recorded: shifted the vasoconstrictive response to phenylephrine to the right; also recorded: inhibits phenylephrine-induced vasoconstriction”.

For YGRKKRRQRRRLSFPTTKTYF [HbαX], the alpha-1-adrenergic vasoconstriction [4] is listed as “reduced alpha-1-adrenergic vasoconstriction”, the angiotensin-2 induced hypertension [4] is listed as “protection against angiotensin- 2 induced hypertension” and the “association of alpha globin with eNOS in vivo” value [4] is listed as “disrupt the association of alpha globin with eNOS”. For the same compound, the “mean arterial blood pressure” value [4] was “lower mean arterial blood pressure”, the “Bottom (Mean)” value [1, 5] was 64.59 and the “Top (Mean)” value [1, 5] was 99.93. For the same compound, the “HillSlope (Mean)” value [1, 6] was −0.549, the “disruption of NO-scavenging in human vessels” value ([1]; human vessels) was “potent disruptor of NO-scavenging” and the “LogIC50 (Mean)” value [1, 7] was −5.575. For the same compound, the “effect on vasoconstriction response to PE” value ([1]; listed as alpha globin mimetic peptide) was “significantly inhibited the vasoconstriction response to PE; also recorded: diminished this constriction” and the “maximal constriction” value ([1]; peptide 5 μmol/L) was 64.6±1.6 % of baseline diameter.

With `CNC[C@H](O)c1cccc(O)c1` [Phenylephrine (PE), phenylephrine] the IC50 ([1]; Homo sapiens, log of phenylephrine concentration, four parameter logistic fit, n = 5 human donors, peptide 5 μmol/L, L-NAME 10^-4 M) was 1000 nM, the “Bottom (Mean)” value [1, 5] was 46.11 and 39.08 and the “Top (Mean)” value [1, 5] was 100.30 and 100.12. For the same compound, the “LogIC50 (Mean)” value [1, 7] was −5.891 and the “maximal constriction” value ([1]; peptide 5 μmol/L) was 39.1±3.2 % of baseline diameter and 46.1±5.5 % of baseline diameter.

For `COC(=O)[C@@H](N)CCCN=C(N)N[N+](=O)[O-].Cl` [L-NAME, No-Nitro-L-arginine methyl ester HCl], the “effect of L-NAME on vasoconstriction to PE” value ([1]; control peptide-treated arteries) was “no effect”, the “effect of L-NAME on vasoconstriction to PE” value ([1]; mimetic peptide-treated arteries) was “vasoconstriction was restored” and the “phenylephrine-induced vasoconstriction after incubation with L-NAME” value ([1]; mimetic peptide-treated arteries, L-NAME 10^-4 M) was 41.9±2.0 % of baseline.
